Series [1] relates to MDA-MB-231 (breast). The series is described as follows: Cell viability, crystal violet assay, MDA-MB-231. The class given is cell-based, human. The conditions noted are these: for IC50: MDA-MB-231 (breast), 4,000 cells/well, treated 72 h, mean ± SD (n = 3). An excerpt:
The plates were washed with water and dried again.

The subject of series [2] is H460 (lung). The conditions noted are these: H460 (lung), 4,000 cells/well, treated 72 h, mean ± SD (n = 3). How it is done: (§1) All cell lines (OVCAR8, A2780, H460, and MDA-MB-231) were cultivated in RPMI or DMEM supplemented with 10% FBS, 1% penicillin/streptomycin, and 1% amphotericin. All cells were grown at 310K in a humidified atmosphere containing 5% CO2.
(§2) Various established human ovarian, lung, and breast cancer cell lines were seeded in 96-well plates (4000 cells/well) and were incubated with RPMI 1640 or DMEM (100 μL) supplemented with 10% FBS, 1% penicillin/streptomycin, and 1% amphotericin for 24 h and at 37° C. They were then treated with AuPhos compounds at increasing concentrations for 72 h from stock solutions following serial dilutions, in which AuPhos stock solutions were prepared in DMSO/media mixture (% v/v=20:80). Thereafter, cellular viability was assessed via the established crystal violet colorimetric assay. In brief, cells were fixed with 50 μL of a 1% glutaraldehyde solution and placed in an incubator (37° C., 5% CO2) for 1 hour. The plates were washed with water by running them under a gentle flow of tap water. The plates were air-dried, and crystal violet reagent was added to each well and allowed to incubate at room temperature for 20 min. The plates were washed with water and dried again. Methanol (200 μL/well) was added to each well, and the measurements of absorbance were subsequently performed using a Biotek Synergy H1 Plate Reader at 570 nm (peak absorbance).

The subject of series [3] is A2780 (ovarian). The conditions noted are these: A2780 (ovarian), 4,000 cells/well, treated 72 h, mean ± SD (n = 3). How it is done: as §1, §2
Series [4] relates to OVCAR8 (ovarian). The conditions noted are these: OVCAR8 (ovarian), 4,000 cells/well, treated 72 h, mean ± SD (n = 3). As for the experimental part:
as §1, §2

The subject of series [5] is 4T1 tumor. Description: In vivo comparative experiment of AuPhos-89 and cisplatin, 4T1, IP. More on the design: species or system BALB/c mice. How it is done: Mice were implanted with 2,000,000 4T1 cells subcutaneously on their flanks. […] The control group was injected with a PBS solution containing 1.5% DMSO and 12% Kolliphor. Injection and tumor-size/body-weight measurement was performed three days a week.
Mice organs (heart, lung, liver, kidney, spleen, and tumor) were fixed in freshly prepared paraformaldehyde (4% in PBS), the fixation time was 24 hours. And those processed for paraffin sectioning. The organs sections of 5 μm were stained with H&E staining and used for histological examination of the organs and tumor. A total of 5 sections per tissues (spanning the full depth of the organ) were examined and photographed using a Nikon Eclipse 55i microscope. […]

Series [6] has as its system MDA-MB-231 cells. To be noted: 2 mM for 3 h, FACS. As for the experimental part: MDA-MB-231 cells were seeded at a density of 5×10^5 cells/well in a 6-well clear bottom plate with a final media volume of 2 mL. The cells were allowed to adhere overnight at 37° C. A stock of AuPhos-89 was prepared fresh in DMSO/DMEM (% v/v=20:80) and added to the desired well at a concentration of 1 μM with a final volume of 2.5 mL and incubated for 15 h at 37° C. A stock of H2O2 was prepared in PBS and the cells treated at a final concentration of 2 mM for 3 hours and used as positive control. When ready for analysis, medium was removed and the wells washed with 5 mL of PBS. The cells were trypsinized (1 mL), 5 mL of DMEM were added to each well, and total volume collected and centrifuged to pellet the cells. The cells were resuspended in 2 mL of fresh media, counted, and reconstituted to a concentration of 1×10^5 cells/mL. The cells were centrifuged again, and the pellet suspended in 500 μL of Annexin binding buffer. To each sample was added 5 μl of Annexin V-FITC and 5 μl PI and incubated in the dark at room temperature for 5 minutes. The samples were then subjected to FACS analysis.

On to `c1ccc(P(c2ccccc2)c2ccccc2P(c2ccccc2)c2ccccc2)cc1` [1,2-Bis(diphenylphosphino)benzene, reference compound], for which the IC50 in series [1] (Homo sapiens) turned out to be 1.37 ± 0.45 µM. Besides, the “less cytotoxicity compared with the AuPhos compounds (Table 1)” value in series [1] (MDA-MB-231) was roughly 6 times.

As to `Cl.[Cl][Au-]1([c]2ccccc2Nc2ccccn2)[P+](c2ccccc2)(c2ccccc2)c2ccccc2[P+]1(c1ccccc1)c1ccccc1` [AuPhos-82, (2-anilinopyridine)[1,2-Bis(diphenylphosphino)benzene]gold(III) Dichloride], the IC50 stood at 1.04 ± 0.17 µM in series [2], 0.34 ± 0.04 µM in series [3], 0.85 ± 0.06 µM in series [4] and 0.22 ± 0.2 µM in series [1].

As for `Cl.[Cl][Au-]1([c]2ccccc2Cc2ccccn2)[P+](c2ccccc2)(c2ccccc2)c2ccccc2[P+]1(c1ccccc1)c1ccccc1` [AuPhos-84, (2-benzylpyridine)[1,2-Bis(diphenylphosphino)benzene]gold(III) Dichloride], the half-inhibitory concentration (IC50) in series [2] is 0.76 ± 0.15 µM; in series [3] it was 0.25 ± 0.06 µM; in series [4], 1.24 ± 0.14 µM; in series [1], 0.24 ± 0.16 µM.

With `Cl.O=C(c1ccccn1)c1cccc[c]1[Au-]1([Cl])[P+](c2ccccc2)(c2ccccc2)c2ccccc2[P+]1(c1ccccc1)c1ccccc1` [AuPhos-85, (2-benzoylpyridine)[1,2-Bis(diphenylphosphino)benzene]gold(I) Dichloride], the half-inhibitory concentration (IC50) in series [2] is 0.34 ± 0.07 µM; in series [3] it was 0.15 ± 0.03 µM; in series [4], 0.64 ± 0.11 µM; in series [1], 0.26 ± 0.06 µM.

In the case of `Cl.[Cl][Au-]1([c]2cccc3ccc4cccnc4c23)[P+](c2ccccc2)(c2ccccc2)c2ccccc2[P+]1(c1ccccc1)c1ccccc1` [AuPhos-86, (benzo[h]quinoline)[1,2-Bis(diphenylphosphino)benzene]gold(III) Dichloride], the IC50 in series [2] turned out to be 0.34 ± 0.07 µM; in series [3], 0.33 ± 0.04 µM; in series [4] it was 0.82 ± 0.44 µM; in series [1], 0.29 ± 0.04 µM.

Take `Cc1ccc(-c2ccccn2)[c]([Au-]2([Cl])[P+](c3ccccc3)(c3ccccc3)c3ccccc3[P+]2(c2ccccc2)c2ccccc2)c1.Cl` [AuPhos-87, (2-(p-tolyl)pyridine)[1,2-Bis(diphenylphosphino)benzene]gold(III) Dichloride]: the IC50 stood at 0.71 ± 0.09 µM in series [2], 0.18 ± 0.04 µM in series [3], 0.82 ± 0.76 µM in series [4] and 0.45 ± 0.19 µM in series [1].

For the compound `Cl.O=Cc1ccc(-c2ccccn2)[c]([Au-]2([Cl])[P+](c3ccccc3)(c3ccccc3)c3ccccc3[P+]2(c2ccccc2)c2ccccc2)c1` [AuPhos-88, (4-(2-pyridyl)benzaldehyde)[1,2-Bis(diphenylphosphino)benzene]gold(III) Dichloride], the IC50 in series [2] worked out at 0.4 ± 0.03 µM; in series [3] it was 0.27 ± 0.02 µM; in series [4], 0.85 ± 0.07 µM; in series [1], 0.37 ± 0.21 µM.

In the case of `N.N.[Cl][Pt][Cl]` [cisplatin, reference compound], the “tumor inhibition compared with the control group” value in series [5] (AuPhos-89 10 mg kg−1 IP, cisplatin 3 mg kg−1 IP) was “significant tumor inhibition”. Besides, the tumor volume entry in series [5] (six treatments, thrice a week, IP, AuPhos-89 10 mg kg−1, cisplatin 3 mg/kg, versus vehicle control) is “comparable results to AuPhos-89 treatment”.

With `OO` [hydrogen peroxide, reference compound], the “apoptosis, positive control” value in series [6] is recorded as “significant apoptosis”.

With “(2-phenoxypyridine)[1,2-Bis(diphenylphosphino) benzene]gold(III) Dichloride [AuPhos-83]”, the IC50 was determined as 0.27 ± 0.06 µM in series [2], 0.22 ± 0.01 µM in series [3], 0.89 ± 0.14 µM in series [4] and 0.22 ± 0.07 µM in series [1].

What is called IC50 is the midpoint of a concentration-inhibition curve.

The values are drawn from patent publication US20230357292A1, “MULTI-COORDINATE GOLD-PHOSPHINE COMPOUNDS AND METHOD OF USE” (University of Kentucky Research Foundation, priority 2020, published 2023).
